Reference: patent publication EP0422215B1, “ANTIBACTERIAL AND AN[…]” (THE ROCKEFELLER UNIVERSITY, priority 1989, dated 1990)

Assays:
Format in all cases: cell-based
[1] = system: B. subtilis Bsll; conditions: overnight incubation at 30°C; for LETHAL CONCENTRATION Bsll + ME: B. subtilis, plates prepared with medium E; for LETHAL CONCENTRATION Bsll: Bsll = B. subtilis, thin agarose plates
Protocol: (§1) The products of the invention were tested for activity against a variety of test organisms selected to represent a number of different types of pathogens some of them known to be particularly virulent by the inhibition zone assay of Hoffmann et al. (1981) Insect Biochem. 11 537-548. Thin agar or agarose plates (8.5 cm diameter) were prepared with 6 ml of rich medium containing 100 µg/ml of streptomycin and 2 x 10^5 viable cells of a test organism resistant to streptomycin. Wells of […] were punched in the plates and 3 µl of serially diluted samples were placed in the wells. The diameters of the zones of inhibition around the wells were measured after overnight incubation at 30° or 37°C. For each peptide the squares of the zone diameters were plotted against the logarithm of the concentration, and from the slopes and intercepts the lethal concentrations were calculated as described by Hultmark (1983) EMBO J. 2, 571-76 or Hultmark et al. (1982) Eur. J. Biochem. 127 207-217.
(§2) Novel peptides CA(1-8)M(1-18), CA(1-9)M(1-17), CB(1-13)M(1-13), CA(1-17)M(1-9), CA(1-18)M(1-8), M(1-13)CA(1-22) and M(1-13)CA(1-13) were prepared as described above (see Examples 1-6). These novel peptides and CA, CB, and M were tested for activity against a variety of organisms selected to represent a number of different types of pathogens, some of them known to be particularly virulent, by the inhibition zone assay of Hoffmann et al. (1981), Insect Biochem. 11 537-48. As in Examples 1-6, thin agarose plates were prepared with the respective organisms. The diameters of the zones of inhibition were measured after overnight incubation at 30°C. The lethal concentrations were determined as described above (see Examples 1-6; Hultmark et al. articles cited thereat).

[2] = system: E. coli D21; conditions: thin agarose plates, overnight incubation at 30°C
Protocol: as §1, §2

[3] = system: S. pyogenes; conditions: thin agarose plates, overnight incubation at 30°C
Protocol: as §1, §2

[4] = system: S. aureus Cowan I; conditions: thin agarose plates, 30°C, * indicates flat concentration dependence
Protocol: as §1, §2

[5] = system: P. aeruginosa OT97; conditions: thin agarose plates, overnight incubation at 30°C
Protocol: as §1, §2

[6] = system: Sheep Red Cells; assay: lysis of sheep red blood cells (lysis assay or inhibition zone plate assay with SRC); conditions: SRC = Sheep Red Cells; ? indicates turbid zone (melittin gives clear zone)
Protocol: These values were obtained by either the lysis assay normally used for melittin or by an adaptation of the antibacterial inhibition zone assay of the above-cited Hultmark et al. articles to plates with sheep red cells (SRC). With respect to the latter, sterile agarose plates contained 6 ml of medium with 1% agarose, 0.9% NaCl and 10% SRC suspended in Alsevers solution. A dilution series of peptide was applied in 3mm wells each loaded with 3 µl of the respective samples. The plates were incubated at 30°C for 24 h, the zones were recorded and LC values calculated as described in the Hultmark et al. articles. Clear zones were recorded after a few hours of incubation and the use of such data gave an LC value of the same order as readings after 24 h. This plate assay is faster and more convenient than the lysis assay normally used for melittin.

[7] = system: Plasmodium falciparum strain F32 (Tanzania); assay: inhibition of reinvasion of human red cells by blood stream forms of the malaria parasite; conditions: result in words, read from Figure 1
Protocol: The blood stream forms of the malaria parasite Plasmodium falciparum, primarily late trophozoites and early schizonts, were assayed by recording the inhibition of the reinvasion of human red cells by the method of Wahlin, B., et al, (1984) Proc. Natl. Acad. Sci. USA 81, 7912-16. Quadruplicate microcultures of strain F32 (Tanzania) were incubated for 20 hrs at 37°C in a complete tissue culture medium, with or without different concentrations of the peptides to be assayed. After acridine orange staining, the percentage of newly infected red cells was scored in a fluorescence microscope. For each culture 40,000 red cells were analysed for parasitic infection. Duplicate assays were run for CA(1-13)M(1-13).

| Compound | LETHAL CONCENTRATION Bsll + ME [1] [µM] | LETHAL CONCENTRATION Bsll [1] [µM] | LETHAL CONCENTRATION D21 [2] [µM] | LETHAL CONCENTRATION Strep [3] [µM] | LETHAL CONCENTRATION Staph [4] [µM] | LETHAL CONCENTRATION OT97 [5] [µM] | LETHAL CONCENTRATION SRC [6] [µM] | activity against Plasmodium falciparum (inhibition of reinvasion, Figure 1) [7] |
| --- | --- | --- | --- | --- | --- | --- | --- | --- |
| H-KWKLFKKIEKVGQNIRDGIIKAGPAVAVVGQATQIAK-NH2 [CA(1-37), reference compound] | 200 | 4 | 0.2 | 4 | >200 | 2 | >200 | only negligible activity |
| H-KWKVFKKIEKMGRNIRNGIVKAGPAIAVLGEAKAL-NH2 [CB(1-35), reference compound] | – | – | 0.3 | 12 | >200 | 1 | – | about as potent as Mag |
| CC[C@H](C)[C@H](NC(=O)CNC(=O)[C@H](CCCNC(=N)N)NC(=O)CNC(=O)[C@H](CCSC)NC(=O)[C@H](CCCCN)NC(=O)[C@H](CCC(=O)O)NC(=O)[C@@H](NC(=O)[C@H](CCCCN)NC(=O)[C@H](CCCCN)NC(=O)[C@H](Cc1ccccc1)NC(=O)[C@@H](NC(=O)[C@H](CCCCN)NC(=O)[C@H](Cc1c[nH]c2ccccc12)NC(=O)[C@@H](N)CCCCN)C(C)C)[C@@H](C)CC)C(=O)NCC(=O)N[C@@H](C)C(=O)N[C@H](C(=O)N[C@@H](CC(C)C)C(=O)N[C@@H](CCCCN)C(=O)N[C@H](C(=O)N[C@@H](CC(C)C)C(=O)N[C@H](C(=O)N[C@H](C(=O)NCC(=O)N[C@@H](CC(C)C)C(N)=O)[C@@H](C)O)[C@@H](C)O)C(C)C)C(C)C [CB(1-13)M(1-13)] | 0.4 | 0.4 | 0.3 | 1 | 4 | 1 | >400 | – |
| CC[C@H](C)[C@H](NC(=O)CNC(=O)[C@@H](NC(=O)[C@H](CCCCN)NC(=O)[C@H](CCCCN)NC(=O)[C@H](Cc1ccccc1)NC(=O)[C@H](CC(C)C)NC(=O)[C@H](CCCCN)NC(=O)[C@H](Cc1c[nH]c2ccccc12)NC(=O)[C@@H](N)CCCCN)[C@@H](C)CC)C(=O)NCC(=O)N[C@@H](C)C(=O)N[C@H](C(=O)N[C@@H](CC(C)C)C(=O)N[C@@H](CCCCN)C(=O)N[C@H](C(=O)N[C@@H](CC(C)C)C(=O)N[C@H](C(=O)N[C@H](C(=O)NCC(=O)N[C@@H](CC(C)C)C(=O)N1CCC[C@H]1C(=O)N[C@@H](C)C(=O)N[C@@H](CC(C)C)C(=O)N[C@H](C(=O)N[C@@H](CO)C(N)=O)[C@@H](C)CC)[C@@H](C)O)[C@@H](C)O)C(C)C)C(C)C [CA(1-8)M(1-18)] | 0.5 | 0.4 | 0.3 | 2 | 1 | 0.7 | >600 | – |
| CC[C@H](C)[C@H](NC(=O)CN)C(=O)NCC(=O)N[C@@H](C)C(=O)N[C@H](C(=O)N[C@@H](CC(C)C)C(=O)N[C@@H](CCCCN)C(=O)N[C@H](C(=O)N[C@@H](CC(C)C)C(=O)N[C@H](C(=O)N[C@H](C(=O)NCC(=O)N[C@@H](CC(C)C)C(=O)N1CCC[C@H]1C(=O)N[C@@H](C)C(=O)N[C@@H](CC(C)C)C(=O)N[C@H](C(=O)N[C@@H](CO)C(=O)N[C@@H](Cc1c[nH]c2ccccc12)C(=O)N[C@H](C(=O)N[C@@H](CCCCN)C(=O)N[C@@H](CCCNC(=N)N)C(=O)N[C@@H](CCCCN)C(=O)N[C@@H](CCCNC(=N)N)C(=O)N[C@@H](CCC(N)=O)C(=O)N[C@@H](CCC(N)=O)C(N)=O)[C@@H](C)CC)[C@@H](C)CC)[C@@H](C)O)[C@@H](C)O)C(C)C)C(C)C [M(1-26), reference compound] | 0.3 | 0.2 | 0.8 | 0.5 | 0.2 | 3 | 4 to 8 | – |
